Laboratory results: publication PMC6391970, “Design, Synthesis and Characterization of Covalent KDM5 Inhibitors” (Angewandte Chemie (International Ed. in English), 2018)

What was measured:
HEK-293 cells = experiment: Cytotoxicity assessment, Cell Titer-Glo, 72 hours; assay type: cell-based, human; details: CTG viability at 72 hrs
Excerpt: Immunofluorescence‐based assays have been previously used to analyse global changes in H3K4me3 as a measure of KDM5 activity, but the global change can be affected by other factors such as cytotoxicity.17 We therefore employed chromatin immunoprecipitation and sequencing (ChIP‐seq) as a more accurate method to quantify the H3K4me3 level at transcriptional start sites (TSS) as a read‐out for inhibition of KDM5 activity. […] Compounds 4, 7 and 9 were selected for H3K4me3 ChIP‐seq experiments and quantification.18 […]
Covalent binding RapidFire
Recombinant KDM5B (MW = 55152 Da) was incubated at 1 μM with the appropriate compound at 10 μM for 2 hours at 37 °C in 50 mM MES buffer at pH 7.0. Samples were injected in RapidFire 365 and MS was detected in QTOF mass spectrometer. Data were acquire and analysed with Agilent Mass Hunter software. […]
Digestion with elastase (1 µL) overnight at 37 °C followed by purification with SEP-PAK C18 columns and resuspension of the final sample in 98% MilliQ-H20 2% CH3CN 0.1% TFA gave the final sample ready to inject. […]
NanoBRET™ Nano-Glo® substrate (Promega UK) and Extracellular NanoLuc Inhibitor (Promega UK) were added at final concentrations of 10 and 20 µM, respectively. Readings were performed within 5 minutes using a PHERAstar FSX (BMG Labtech) with 450 and 610 nm filters. […] BRET ratios are expressed as milliBRET units (mBU), where 1 mBU corresponds to […]

KDM5C = KDM5C (Homo sapiens, UniProt P41229); experiment: Covalent binding by MS, KDM5C; details: same conditions as with KDM5B
Chain of KDM5C (P41229 whole entry): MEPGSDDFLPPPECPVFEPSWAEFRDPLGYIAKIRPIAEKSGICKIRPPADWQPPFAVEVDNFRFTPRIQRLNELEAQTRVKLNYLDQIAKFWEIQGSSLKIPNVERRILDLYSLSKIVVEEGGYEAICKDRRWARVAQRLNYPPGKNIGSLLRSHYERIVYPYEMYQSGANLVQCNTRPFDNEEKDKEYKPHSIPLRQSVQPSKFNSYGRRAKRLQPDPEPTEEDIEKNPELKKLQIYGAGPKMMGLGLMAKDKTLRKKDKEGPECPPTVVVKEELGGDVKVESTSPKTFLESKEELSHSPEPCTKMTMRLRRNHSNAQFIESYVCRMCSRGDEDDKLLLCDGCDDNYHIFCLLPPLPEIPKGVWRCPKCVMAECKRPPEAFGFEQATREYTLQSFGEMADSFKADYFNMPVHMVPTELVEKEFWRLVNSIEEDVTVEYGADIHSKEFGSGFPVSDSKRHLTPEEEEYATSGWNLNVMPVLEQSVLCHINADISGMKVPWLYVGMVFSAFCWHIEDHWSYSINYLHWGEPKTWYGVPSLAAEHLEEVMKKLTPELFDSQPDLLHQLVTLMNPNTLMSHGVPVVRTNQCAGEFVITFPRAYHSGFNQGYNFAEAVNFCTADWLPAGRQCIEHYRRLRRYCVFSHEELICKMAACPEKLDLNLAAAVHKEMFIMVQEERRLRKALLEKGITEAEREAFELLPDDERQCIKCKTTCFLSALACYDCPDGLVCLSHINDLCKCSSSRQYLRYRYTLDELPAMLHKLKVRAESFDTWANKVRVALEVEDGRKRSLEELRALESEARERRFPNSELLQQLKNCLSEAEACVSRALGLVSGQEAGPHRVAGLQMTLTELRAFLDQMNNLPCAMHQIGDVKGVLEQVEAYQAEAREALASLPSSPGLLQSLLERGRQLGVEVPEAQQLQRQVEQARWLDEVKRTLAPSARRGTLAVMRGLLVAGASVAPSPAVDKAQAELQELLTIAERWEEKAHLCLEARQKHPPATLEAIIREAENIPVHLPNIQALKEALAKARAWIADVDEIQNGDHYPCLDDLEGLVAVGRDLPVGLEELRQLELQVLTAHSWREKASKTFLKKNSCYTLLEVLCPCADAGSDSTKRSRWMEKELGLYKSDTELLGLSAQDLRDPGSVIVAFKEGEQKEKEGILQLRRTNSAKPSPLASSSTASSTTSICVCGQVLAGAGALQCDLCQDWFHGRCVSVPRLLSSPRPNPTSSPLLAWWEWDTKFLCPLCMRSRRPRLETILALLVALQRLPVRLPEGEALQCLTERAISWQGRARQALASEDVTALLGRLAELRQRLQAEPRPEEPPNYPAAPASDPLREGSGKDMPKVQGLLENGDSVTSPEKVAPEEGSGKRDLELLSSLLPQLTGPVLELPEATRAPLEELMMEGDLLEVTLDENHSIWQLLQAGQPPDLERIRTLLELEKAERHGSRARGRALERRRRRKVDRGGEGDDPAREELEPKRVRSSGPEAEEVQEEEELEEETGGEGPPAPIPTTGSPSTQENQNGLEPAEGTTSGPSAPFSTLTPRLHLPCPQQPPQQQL

covalent binding to KDM5C by MS (KDM5C) | Compound | cytotoxicity in HEK cells (HEK-293 cells)
 | CN(CCc1cnn(-c2nccc3c(=O)[nH]cnc23)c1)Cc1cccc(NC(=O)CCl)c1 [Compound 5] | with the exception of 5, compounds were not cytotoxic
no covalent binding | CN(C)C/C=C/C(=O)Nc1cccc(CN(C)CCc2cnn(-c3nccc4c(=O)[nH]cnc34)c2)c1 [Compound 6] | 
